Reference: US8980874B2, “Method and composition for treating diabetic ketoacidosis” (Midwestern University, priority 2009, dated 2015)
Entries after “also recorded” stand apart in the source; their conditions may differ. Structures can show the parent of a compound that is named as a salt.

Legend:
Assay type in all cases: in vivo
rat model of DKA [1] = test: Arterial blood gases, electrolytes, lactate and hematocrit in diabetic ketoacidosis rats; settings: for arterial blood pH, Day 4 (pre-tx): instrument could not record pH below 6.80, mean±SEM
Excerpt: Arterial blood pH, pO2, pCO2, Na^+, K^+, lactate, and hematocrit were monitored prior to, at one hour, and at the end of treatment. Blood samples were drawn from the arterial cannula using blood gas sampling syringes (Innovative Medical Technologies, Inc. Leawood, Kans.) and analyzed using a GEM Premier 3000 unit (Instrument Laboratory, Lexington, Mass.). Blood samples were withdrawn from the femoral artery for baseline reading prior to start of treatment, after the first hour of treatment, and then at the end of the treatment (fifth hour of experiment).
(§1) Group 4: Diabetic saline/insulin treated (D-Saline+insulin treated): Rats were injected with streptozotocin in citrate buffer (150 mg/kg ip) to induce diabetes and ketoacidosis. On day three, rats were treated with 1.5 U/kg regular insulin (Humulin® R (Regular human insulin, rDNA origin). On day four, saline and insulin treatment was carried out. Rats were infused via cannulated femoral vein saline, 0.9% NaCl at 80 mL/kg/hr and 1.5 U/kg/hr regular insulin for one hour. During the next two through four hours, rats were infused with saline, 0.9% NaCl at 40 mL/kg/hr and 1.5 U/kg/hr regular insulin (Yuen et al., 2008).
(§2) Group 5: Diabetic BMS-182874/saline/insulin treated (D-BMS+Saline+insulin treated): Rats were injected with streptozotocin in citrate buffer (150 mg/kg ip) to induce diabetes and ketoacidosis. On day three, rats were treated with 1.5 U/kg regular insulin. On day four, rats were administered a bolus dose of selective ETA receptor antagonist, BMS-182874 (9 mg/kg), then saline and insulin treatment was carried out. Rats were infused via cannulated femoral vein saline, 0.9% NaCl at 80 mL/kg/hr and 1.5 U/kg/hr regular insulin for one hour. During the next two through four hours rats were infused with saline, 0.9% NaCl at 40 mL/kg/hr and 1.5 U/kg/hr regular insulin.
(§3) Group 6: Diabetic BQ123/saline/insulin treated (D-BQ+saline+insulin treated): Same as above for Group 5, except BQ123 (1 mg/kg body weight) is used as a substitute for BMS-182874 (9 mg/kg).
(§4) Data are presented as mean±SEM. The significance of differences was estimated by one-way analysis of variance (intra group comparison with respect to base line data) and two-way analysis of variance (inter group comparison with respect to corresponding time points from each groups) followed by application of the Dunnett's Multiple Comparisons and Bonferroni test respectively. A P value of less than 0.05 was considered to be significant. The statistical analysis was processed with GraphPad Prism software Version 5.00.

rat model of DKA [2] = test: Brain blood perfusion (Laser Doppler Flowmetry) in diabetic ketoacidosis rats; settings: day 4, FIG. 6, antagonist given with saline+insulin, result in words
Method: A burr hole was drilled into the rat skull approximately 2 millimeters (mm) to the left of midline, being careful not to disturb the brain tissue itself. Cerebrovascular perfusion was measured via a fiber optic probe (PF407) applied to the surface of the rat brain. The probe was connected to a Periflux PF2b 4000 Laser Doppler Flowmetry unit (Perimed, Stockholm, Sweden). The perfusion was determined by measuring the passage of red blood cells through the capillaries.
as §1, §2, §3, §4

rat model of DKA [3] = test: Cardiovascular parameters (MAP, pulse pressure, heart rate) in diabetic ketoacidosis rats
Excerpt: Rats were anaesthetized with urethane (1.5 g/kg ip.) and prepared for the determination of hemodynamic parameters (Gulati et al., 1997a; Gulati et al., 1997b). The anesthetized rats were shaved and immobilized to prepare for cannulation. A 2-3 centimeter (cm) incision was made above the femoral vein and artery and the vessels were dissected and cleaned. The left femoral vein was cannulated (PE-50 tubing, Clay Adams, Parsipanny, N.J.) and secured for drug administration. An ultra-miniature pressure transducer SPR-320 (2F Polyurethane), with a single pressure sensor side mounted at the tip (Millar Instruments, Houston, Tex.) was inserted in the left femoral artery to acquire the hemodynamic signals. Pressure transducer was connected to bridge amplifier (ML221 Bridge Amp; AD Instruments, Mountain View, Calif., USA) with Viking connector (AEC-10C) and the signals were continuously acquired at a sampling rate of 1000 S^−1 using Millar PowerLab 16/30 data acquisition system (AD Instruments, Mountain View, Calif., USA). Mean arterial pressure (MAP), heart rate (HR), and pulse pressure (PP) were determined and analyzed with LabChart-5.00 software program (Millar Instruments). After the experiment was completed, the animals were euthanized with a high dose of urethane (3 gm/kg).
as §1, §2, §3, §4

rat model of DKA [4] = test: Blood glucose in streptozotocin-induced diabetic ketoacidosis rats
Method: (§5) Normotensive Sprague Dawley rats were kept on fasting for 2 hours with unlimited access to water. After 2 hours of fasting, rats were injected intraperitoneally with 150 mg/kg of streptozotocin in 0.05 mol/L citric acid, pH 4.3 to induced diabetes (Lam et al., 2005; Yuen et al., 2008), while non-diabetic control rats received an intraperitoneal injection of 0.05 mol/L citrate buffer (Lam et al., 2005; Yuen et al., 2008). Rats were allowed unlimited access to tap water and food. Each day rats were weighed and urine ketone levels were estimated by Urine Reagent Strips, 1K Parameter. Prior to streptozotocin or citrate buffer injection, baseline blood glucose levels were assessed by One Touch Ultra blood glucose strips from Lifescan, Milpitas, Calif., and baseline blood ketone levels were estimated using Cardiochek blood ketone analyzer. Blood glucose and ketone were measured again on day three and four to ensure the onset of hyperglycemia and ketoacidosis. […] Blood samples were withdrawn from the femoral […] for baseline reading prior to start of treatment, after the first hour of treatment, and then at the end of the treatment (fifth hour of experiment).
(§6) The animals were allowed to stabilize for at least 20 minutes following surgical procedures. Body weight, blood glucose, urinary ketone, blood ketone, arterial blood gases, blood electrolytes, mean arterial pressure, pulse pressure, heart rate, brain blood perfusion, brain and lung water content were determined in the following groups
as §1, §2, §3, §4

rat model of DKA [5] = test: Blood ketone levels in diabetic ketoacidosis rats; settings: for effect of treatment on blood ketones: day 4, result in words (Table 2, FIG. 2), hydrochloride
Method: as §5, §6, §1, §2, §3, §4

[6] = day 4, BMS-182874+saline+insulin group
[7] = day 4, compared to diabetic untreated rats, result in words
[8] = saline+insulin, alone or after bolus BMS-182874 9 mg/kg or BQ123 1 mg/kg

With `Cc1noc(NS(=O)(=O)c2cccc3c(N(C)C)cccc23)c1C` [BMS-182874, (5-Dimethylamino)-N-(3,4-dimethyl-5-isoxazolyl)-1-naphthalene sulfonamide hydrochloride] the “arterial blood pH, Day 4 (pre-tx)” value (rat model of DKA [1]; baseline, hydrochloride) was 6.82±0.02, the “arterial blood pH, Day 4 (pre-tx)” value (rat model of DKA [1]; baseline, listed as BMS, hydrochloride) was 6.82 ± 0.02 and the “arterial blood pCO2, Day 4 (pre-tx)” value (rat model of DKA [1]; baseline, mean±SEM) was 28.71 ± 2.08 mmHg. The “arterial blood pO2, Day 4 (pre-tx)” value (rat model of DKA [1]; baseline, mean±SEM) was 156.71 ± 7.11 mmHg, the “blood K+ level, Day 4 (pre-tx)” value (rat model of DKA [1]; baseline, mean±SEM) was 4.21 ± 0.33 mmol/L and the “blood Na+ level, Day 4 (pre-tx)” value (rat model of DKA [1]; baseline, mean±SEM) was 135.71 ± 2.06 mmol/L. For the same molecule, the “blood hematocrit (Hct), Day 4 (pre-tx)” value (rat model of DKA [1]; baseline, mean±SEM) was 45.71 ± 1.48%, the blood K+ levels, after treatment (to) (rat model of DKA [1]; [6]) was 2.75 ± 0.27 mM and the blood K+ levels, before treatment (from) (rat model of DKA [1]; [6]) was 4.21 ± 0.33 mM. The “effect of treatment on arterial blood pH (acidosis)” value (rat model of DKA [1]; day 4, antagonist given with saline+insulin, result in words) was “produced a significant improvement in arterial blood pH”, the “effect of treatment on blood K+ levels” value (rat model of DKA [1]; [7]) was “significantly reduced the change in blood K^+ levels” and the “effect of treatment on blood lactate levels” value (rat model of DKA [1]; [7]) was “significantly reduced the change in blood lactate levels”. The “effect of treatment on hematocrit” value (rat model of DKA [1]; [7]) was “significantly reduced the hematocrit”, the “arterial blood pCO2, Day 4 (1 hour of tx)” value (rat model of DKA [1]; [8]) was 30.57 ± 1.94 mmHg and the “arterial blood pCO2, Day 4 (end of tx)” value (rat model of DKA [1]; [8]) was 30.57 ± 2.23 mmHg. The “arterial blood pO2, Day 4 (1 hour of tx)” value (rat model of DKA [1]; [8]) was 135.57 ± 6.37 mmHg, the “arterial blood pO2, Day 4 (end of tx)” value (rat model of DKA [1]; [8]) was 143.85 ± 6.59 mmHg and the “blood K+ level, Day 4 (1 hour tx)” value (rat model of DKA [1]; [8]) was 2.62 ± 0.29 mmol/L. The “blood K+ level, Day 4 (end of tx)” value (rat model of DKA [1]; [8]) was 2.75 ± 0.27 mmol/L, the “blood Na+ level, Day 4 (1 hour of tx)” value (rat model of DKA [1]; [8]) was 143.42 ± 1.84 mmol/L and the “blood Na+ level, Day 4 (end of tx)” value (rat model of DKA [1]; [8]) was 146.14 ± 1.14 mmol/L. For the same molecule, the “blood hematocrit (Hct), Day 4 (1 hour of tx)” value (rat model of DKA [1]; [8]) was 33.28 ± 1.52 %, the “blood hematocrit (Hct), Day 4 (end of tx)” value (rat model of DKA [1]; [8]) was 29.28 ± 2.22 % and the “arterial blood pH, Day 4 (1 hour of tx)” value (rat model of DKA [1]; saline+insulin, alone or after bolus BMS-182874 9 mg/kg or BQ123 1 mg/kg, instrument floor 6.80) was 6.81 ± 0.01. The “arterial blood pH, Day 4 (end of tx)” value (rat model of DKA [1]; saline+insulin, alone or after bolus BMS-182874 9 mg/kg or BQ123 1 mg/kg, instrument floor 6.80, hydrochloride) was 6.91±0.02, the “arterial blood pH, Day 4 (end of tx)” value (rat model of DKA [1]; saline+insulin, alone or after bolus BMS-182874 9 mg/kg or BQ123 1 mg/kg, instrument floor 6.80, listed as BMS, hydrochloride) was 6.91 ± 0.02 and the “effect on cerebral blood perfusion” value (rat model of DKA [2]; hydrochloride) was “significantly blocked; also recorded: prevented”. The “effect on cerebral blood perfusion” value (rat model of DKA [2]; listed as BMS182874, hydrochloride) was “prevented an insulin induced increase in cerebral blood perfusion”, the “effect on mean arterial pressure” value (rat model of DKA [3]; day 4, FIG. 3, antagonist given with saline+insulin, result in words) was “stabilized the arterial pressure” and the “effect on pulse pressure” value (rat model of DKA [3]; day 4, FIG. 4, antagonist given with saline+insulin, result in words) was “stabilized the pulse pressure”. For the same molecule, the “effect on heart rate” value (rat model of DKA [3]; day 4, FIG. 5, antagonist given with saline+insulin, result in words) was “did not produce any decrease in heart rate compared to baseline”, the “effect on insulin induced hypertension” value (rat model of DKA [3]; day 4, result in words) was “prevented development of insulin induced hypertension” and the “blood glucose, Day 4 (pre-tx)” value (rat model of DKA [4]; baseline before treatment on day 4, mean±SEM) was 522 ± 18 mg/dL. For the same molecule, the “effect of treatment on blood glucose” value (rat model of DKA [4]; day 4, result in words) was “did not significantly affect blood glucose”, the “blood glucose, Day 4 (end of tx)” value (rat model of DKA [4]; saline+insulin infusion, alone or after bolus BMS-182874 9 mg/kg or BQ123 1 mg/kg, fifth hour, mean±SEM) was 263 ± 32 mg/dL and the “blood glucose, Day 4 (1 hour of tx)” value (rat model of DKA [4]; saline+insulin infusion, alone or after bolus BMS-182874 9 mg/kg or BQ123 1 mg/kg, mean±SEM) was 446 ± 36 mg/dL. For the same molecule, the “blood ketone levels, Day (pre tx)” value (rat model of DKA [5]; baseline before treatment, mean±SEM) was 31.01 ± 2.29 mg/dL, the “effect of treatment on blood ketones” value (rat model of DKA [5]) was “did not significantly affect blood ketones” and the “effect of treatment on blood ketones” value (rat model of DKA [5]; listed as BMS) was “produced a significant decrease in blood ketones”. The “blood ketone levels, Day 4 (end of tx)” value (rat model of DKA [5]; saline+insulin, alone or after bolus BMS-182874 9 mg/kg or BQ123 1 mg/kg, mean±SEM) was 14.65 ± 2.70 mg/dL.
